# Earlier results in patent publication US20250042860A1, “Process for Chemical Synthesis of Ergothioneine and Methods of Use” (NANJING NUTRABUILDING BIO-TECH CO., LTD., priority 2022, published 2025).
# Conditions: animals and humans, even at high doses
substance,measurement,value
ergothioneine,toxicity or adverse effects associated with ergothioneine administration,no toxicity or adverse effects
